Results published in patent US9139523B2, “5-HT2B receptor antagonists” (Janssen Pharmaceutica, NV, priority 2010, dated 2015).

How the values were obtained:
anesthetized guinea-pig = experiment: Cardiovascular effects in the anaesthetized guinea-pig; format: in vivo; details: guinea pig, 0.02 mg/kg i.v. over 1 min, 15 min after onset of last vehicle infusion
Experimental: Female guinea-pigs were anesthetized with sodium pentobarbital (66 mg/kg i.p.) followed by a continuous i.v. infusion of 6 mg/h of sodium pentobarbital and prepared for measurements of the surface electrocardiogram (ECG), heart rate and mean arterial blood pressure (see De Clerck et al, Fundam. Clin. Pharm.; 2002; 16: 125-140). Compound (−)-17 was dissolved in 20% hydroxypropyl-cyclodextrin with NaOH, HCl and mannitol in pyrogen-free water and administered intravenously (0.5 ml/kg) in increasing doses (0.16, 0.32, 0.64, 1.25, 2.5 and 5 mg/kg) over a period of 5 min at 15-min intervals. Plasma concentrations of Compound (−)-17 were measured at the end of each infusion. Corresponding volumes of vehicle were administered according to the same protocol in a second group of animals.

Alpha1A = biological target: T1, Alpha1A (Homo sapiens, UniProt P35348); experiment: Competitive radioligand binding, Alpha1A; details: CHO membranes, 3H-prazosin 0.25 nM; read-out: pIC50 Alpha1A (converted)
T1 construct: expressed in transfected cells; host or cells: CHO (membrane fraction)
T1 sequence (P35348 1-466): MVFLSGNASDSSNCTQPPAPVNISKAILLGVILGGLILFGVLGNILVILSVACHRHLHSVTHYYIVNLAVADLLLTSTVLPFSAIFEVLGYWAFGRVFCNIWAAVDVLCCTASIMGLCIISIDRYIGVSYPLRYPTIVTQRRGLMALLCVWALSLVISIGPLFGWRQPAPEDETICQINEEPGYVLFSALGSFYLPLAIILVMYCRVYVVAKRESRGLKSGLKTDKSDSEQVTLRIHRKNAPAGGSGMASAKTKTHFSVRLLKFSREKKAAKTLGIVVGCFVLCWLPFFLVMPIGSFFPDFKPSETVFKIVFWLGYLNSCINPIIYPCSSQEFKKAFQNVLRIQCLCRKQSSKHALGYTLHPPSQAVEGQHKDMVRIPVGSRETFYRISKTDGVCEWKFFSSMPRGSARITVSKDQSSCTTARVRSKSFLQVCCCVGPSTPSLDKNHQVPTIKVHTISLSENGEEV
Experimental: (§1) Competitive radioligand binding assays were used to determine the affinity of the test compounds for a particular receptor. Various concentrations of the non-labelled test compound were added to the incubation mixture with the membrane fraction, containing the receptor of interest, and a fixed low concentration (nM) of the radioligand. During the incubation the radioligand bound to the receptor, but this was inhibited by the non-labelled test compound in proportion to its binding affinity and concentration.
(§2) Cell lines were established that stably express the human variant of the receptor under investigation after transfection with the appropriate cDNA (Table 1). Transfected cells were grown under standard culture conditions, and membrane fractions were obtained upon centrifugation and homogenisation of the cells. Optimal membrane dilutions for binding studies were determined and aliquots were stored at −70° C. until use. In a 96-well plate format, the appropriate radioligand was added to the membrane preparation containing the receptor under investigation. Compound solutions were prepared in DMSO, and diluted 100-fold into the multiwell plate to a final test concentration of 10^−9 to 10^−5 M. After incubation with the test compound, the unbound radioligand was removed by filtration on G/F filters with a Filtermate 96. Microscint™ was added to the washed filter plates and the radioactivity bound to the receptor was measured by liquid scintillation counting in a TopCount (Packard). To measure the Non-Specific Binding (NSB), a high concentration of the non-radiolabeled ligand was added to wells containing the membrane fraction and the radioligand.
(§3) Using in house developed software, a best-fit curve was fitted by a minimum sum of squares method to the plot of % inhibition vs. concentration of the test compound. From this, the pIC50 value (inhibitory concentration causing 50% displacement of specific binding) was determined, as well as an estimate of the slope of the plot (Hill coefficient).

D2L = biological target: T2, D2L (Homo sapiens, UniProt P14416); experiment: Competitive radioligand binding, D2L; details: CHO membranes, 3H-spiperone 0.2 nM; read-out: pIC50 D2L (converted)
T2 construct: expressed in transfected cells; host or cells: CHO (membrane fraction)
Experimental: as §1, §2, §3

5HT3A/B = biological target: T3, 5HT3A/B (Homo sapiens, UniProt O95264+P46098); experiment: Competitive radioligand binding, 5HT3A/B; details: HEK293 membranes, 3H-GR65630 0.5 nM; read-out: pIC50 5HT3A/B (converted)
T3 construct: expressed in transfected cells; host or cells: HEK293 (membrane fraction)
T3 sequence (P46098 24-478): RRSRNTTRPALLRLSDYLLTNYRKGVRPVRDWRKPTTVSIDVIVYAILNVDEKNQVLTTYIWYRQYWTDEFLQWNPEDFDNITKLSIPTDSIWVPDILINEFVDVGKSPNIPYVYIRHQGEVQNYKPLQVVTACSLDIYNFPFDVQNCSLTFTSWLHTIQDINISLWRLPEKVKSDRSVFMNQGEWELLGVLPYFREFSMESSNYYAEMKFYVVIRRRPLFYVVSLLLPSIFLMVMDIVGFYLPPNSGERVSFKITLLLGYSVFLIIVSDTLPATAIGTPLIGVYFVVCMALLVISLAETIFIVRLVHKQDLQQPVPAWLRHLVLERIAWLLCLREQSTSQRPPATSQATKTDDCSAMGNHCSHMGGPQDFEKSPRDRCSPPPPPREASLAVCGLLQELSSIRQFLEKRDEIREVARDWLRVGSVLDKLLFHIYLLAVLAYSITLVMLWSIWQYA
T3 sequence (O95264 22-441): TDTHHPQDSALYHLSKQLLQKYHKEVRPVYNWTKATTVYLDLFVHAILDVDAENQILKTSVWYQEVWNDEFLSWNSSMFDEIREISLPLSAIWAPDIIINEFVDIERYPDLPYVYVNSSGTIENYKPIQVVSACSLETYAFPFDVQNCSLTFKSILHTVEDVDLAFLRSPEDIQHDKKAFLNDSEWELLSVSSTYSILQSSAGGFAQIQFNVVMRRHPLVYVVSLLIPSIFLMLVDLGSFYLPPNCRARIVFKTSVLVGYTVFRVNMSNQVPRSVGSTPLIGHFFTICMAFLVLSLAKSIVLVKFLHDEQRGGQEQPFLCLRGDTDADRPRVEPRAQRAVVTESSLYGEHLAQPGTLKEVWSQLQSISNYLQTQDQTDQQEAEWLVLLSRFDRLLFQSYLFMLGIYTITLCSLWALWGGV
Experimental: as §1, §2, §3

5HT1A = biological target: T4, 5HT1A (Homo sapiens, UniProt P08908); experiment: Competitive radioligand binding, 5HT1A; details: HEK293 membranes, 3H-8-OH-DPAT 0.5 nM; read-out: pIC50 5HT1A (converted)
T4 construct: expressed in transfected cells; host or cells: HEK293 (membrane fraction)
T4 sequence (P08908 1-422): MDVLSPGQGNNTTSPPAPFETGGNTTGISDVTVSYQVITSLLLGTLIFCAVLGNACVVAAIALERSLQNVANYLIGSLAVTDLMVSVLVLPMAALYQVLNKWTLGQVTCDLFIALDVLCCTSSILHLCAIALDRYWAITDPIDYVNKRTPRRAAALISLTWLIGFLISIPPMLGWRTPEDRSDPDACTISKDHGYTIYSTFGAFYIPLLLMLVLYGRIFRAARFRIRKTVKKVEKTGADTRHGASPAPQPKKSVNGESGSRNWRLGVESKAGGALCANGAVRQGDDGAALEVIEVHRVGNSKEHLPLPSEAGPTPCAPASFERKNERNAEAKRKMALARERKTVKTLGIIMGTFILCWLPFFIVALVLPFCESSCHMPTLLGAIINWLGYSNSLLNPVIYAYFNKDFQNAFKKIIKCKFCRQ
Experimental: as §1, §2, §3

T2 sequence (P14416 whole entry): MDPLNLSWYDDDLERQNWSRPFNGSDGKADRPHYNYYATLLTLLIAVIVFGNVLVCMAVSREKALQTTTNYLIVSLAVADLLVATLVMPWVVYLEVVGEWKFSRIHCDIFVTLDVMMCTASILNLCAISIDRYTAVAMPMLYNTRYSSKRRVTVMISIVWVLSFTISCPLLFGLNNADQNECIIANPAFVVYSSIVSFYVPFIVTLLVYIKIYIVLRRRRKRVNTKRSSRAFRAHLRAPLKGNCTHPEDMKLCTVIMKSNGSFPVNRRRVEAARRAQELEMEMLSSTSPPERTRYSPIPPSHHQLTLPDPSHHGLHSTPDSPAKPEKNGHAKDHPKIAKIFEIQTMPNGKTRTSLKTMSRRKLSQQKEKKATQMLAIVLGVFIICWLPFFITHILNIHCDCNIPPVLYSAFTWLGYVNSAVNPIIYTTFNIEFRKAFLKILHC

CN(CCOc1ccc(NS(C)(=O)=O)cc1)CCc1ccc(NS(C)(=O)=O)cc1 [dofetilide, reference compound]
heart rate (anesthetized guinea-pig): decreased

COc1cc(N)c(Cl)cc1C(=O)NC1CCN(CCCOc2ccc(F)cc2)CC1OC (centres unmarked) [Cisapride, reference compound]
IC50 (Alpha1A): 0.407 µM
IC50 (D2L): 0.537 µM
IC50 (5HT3A/B): 1.15 µM
IC50 (5HT1A): 1.95 µM
